For 25 compounds, IC50 results are on record in patent US9777003B2, “Tricyclic heterocycles as bet protein inhibitors” (Incyte Corporation, priority 2013, dated 2017).

The IC50 is the concentration that gives 50% inhibition.

SMILES strings stand for the structures.

In one experiment the target is BRD4-BD1 (Homo sapiens (Human), UniProt O60885). Briefly: BRD4 AlphaScreen assay, BRD4-BD1. It is filed as binding. To be noted: biotin-labeled tetra-acetylated histone H4 peptide, 75 min, room temperature, read-out: BRD4 BD-1 enzyme IC50. How it is done: (§1) BRD4-BD1 and BRD4-BD2 assays were conducted in white 384-well polystyrene plate in a final volume of 20 μL for BD1 and 40 μL for BD2. Inhibitors were first serially diluted in DMSO and added to the plate wells before the addition of other reaction components. The final concentration of DMSO in the assay was 1.25% (BD1) and 0.83% (BD2). The assays were carried out at room temperature for 75 min. in the assay buffer (50 mM HEPES, pH 7.4, 100 mM NaCl, 0.05% CHAPS, 0.01% BSA), containing 50 nM Biotin-labeled tetra-acetylated histone H4 peptide (H4Ac4), 3.8 nM (BRD4-BD1, BPS Bioscience #31040) or 20 nM (BRD4-BD2, BPS Bioscience #31041). The reaction followed by the addition of 20 μL of assay buffer supplemented with Streptavidin donor beads (PerkinElmer 6760002) and GSH Acceptor beads (PerkinElmer-AL109C) at 4 μg/mL under reduced light. After plate sealing, the plate was incubated in the dark at room temperature for 75 min. before reading on a PHERAstar FS plate reader (BMG Labtech). IC50 determination was performed by fitting the curve of percent control activity versus the log of the inhibitor concentration using the GraphPad Prism 5.0 software.

A further experiment deals with BRD4-BD2 (Homo sapiens (Human), UniProt O60885). Kind of experiment: BRD4 AlphaScreen assay, BRD4-BD2. The experiment is classed as binding. As to conditions: biotin-labeled tetra-acetylated histone H4 peptide, 75 min, room temperature, read-out: BRD4 BD-2 enzyme IC50. The method, then: as §1
A general note: In Alpha technology, singlet oxygen from a donor bead excites a nearby acceptor bead.

Take `Cc1cc2c(ccc3nnc(C)n32)n1Cc1ccc(CO)cc1` [Example 49, {4-[(1,7-dimethyl-6H-pyrrolo[2,3-e][1,2,4]triazolo[4,3-a]pyridin-6-yl)methyl]phenyl}methanol]: the values for the 50% inhibitory concentration (IC50) at BRD4-BD1 and at BRD4-BD2 were 100 to 1000 nM and ≤ 100 nM, respectively.

`Cc1cc2c(ccc3nnc(C)n32)n1Cc1ccc(CN2CCC2)cc1` [Example 50, 6-[4-(azetidin-1-ylmethyl)benzyl]-1,7-dimethyl-6H-pyrrolo[2,3-e][1,2,4]triazolo[4,3-a]pyridine]: the IC50 at BRD4-BD1 and on BRD4-BD2 was ≤ 100 nM each time.

For the compound `Cc1cc2c(ccc3nnc(C)n32)n1Cc1ccc(CN2CCCC2)cc1` [Example 51, 1,7-dimethyl-6-[4-(pyrrolidin-1-ylmethyl)benzyl]-6H-pyrrolo[2,3-e][1,2,4]triazolo[4,3-a]pyridine], the IC50 on BRD4-BD1 and at BRD4-BD2 was 100 to 1000 nM each time.

`Cc1cc2c(ccc3nnc(C)n32)n1Cc1ccc(CN2CC(O)C2)cc1` [Example 52, 1-{4-[(1,7-dimethyl-6H-pyrrolo[2,3-e][1,2,4]triazolo[4,3-a]pyridin-6-yl)methyl]benzyl}azetidin-3-ol]: the IC50 on BRD4-BD1 and on BRD4-BD2 was 100 to 1000 nM in each case.

With `Cc1cc2c(ccc3nnc(C)n32)n1Cc1ccc(CN(C)C)cc1` [Example 53, 1-{4-[(1,7-dimethyl-6H-pyrrolo[2,3-e][1,2,4]triazolo[4,3-a]pyridin-6-yl)methyl]phenyl}-N,N-dimethylmethanamine], the IC50 on BRD4-BD1 and on BRD4-BD2 was 100 to 1000 nM each time.

Turning to `COC1CN(Cc2cccc(Cn3c(C)cc4c3ccc3nnc(C)n34)c2)C1` [Example 54, 6-{3-[(3-methoxyazetidin-1-yl)methyl]benzyl}-1,7-dimethyl-6H-pyrrolo[2,3-e][1,2,4]triazolo[4,3-a]pyridine], the IC50 at BRD4-BD1 is 100 to 1000 nM; on BRD4-BD2, ≤ 100 nM.

For the compound `Cc1nc2c(ccc3nnc(C)n32)n1Cc1ccccc1` [Example 55, 3-benzyl-2,8-dimethyl-3H-imidazo[4,5-e][1,2,4]triazolo[4,3-a]pyridine], the 50% inhibitory concentration (IC50) on BRD4-BD1 is 100 to 1000 nM; on BRD4-BD2, ≤ 100 nM.

On to `Cc1nnc2ccc3c(cc(CO)n3Cc3ccccc3)n12` [Example 56, (6-benzyl-1-methyl-6H-pyrrolo[2,3-e][1,2,4]triazolo[4,3-a]pyridin-7-yl)methanol], for which the IC50 on BRD4-BD1 was 100 to 1000 nM; on BRD4-BD2, ≤ 100 nM.

In the case of `Cc1nnc2ccc3c(cc(Cn4ccnc4)n3Cc3ccccc3)n12` [Example 57, 6-benzyl-7-(1H-imidazol-1-ylmethyl)-1-methyl-6H-pyrrolo[2,3-e][1,2,4]triazolo[4,3-a]pyridine], the 50% inhibitory concentration (IC50) lay in the range of 1000 to 10000 nM on BRD4-BD1 and 100 to 1000 nM at BRD4-BD2.

With `Cc1nnc2ccc3c(cc(C(N)=O)n3Cc3ccccc3)n12` [Example 58, 6-benzyl-1-methyl-6H-pyrrolo[2,3-e][1,2,4]triazolo[4,3-a]pyridine-7-carboxamide], the IC50 at BRD4-BD1 and on BRD4-BD2 was ≤ 100 nM in each case.

Turning to `CCNC(=O)c1cc2c(ccc3nnc(C)n32)n1Cc1ccccc1` [Example 59, 6-benzyl-N-ethyl-1-methyl-6H-pyrrolo[2,3-e][1,2,4]triazolo[4,3-a]pyridine-7-carboxamide], the IC50 on BRD4-BD1 and on BRD4-BD2 was ≤ 100 nM throughout.

Take `Cc1nnc2ccc3c(cc(C(=O)N4CC(C#N)C4)n3Cc3ccccc3)n12` [Example 60, 1-[(6-benzyl-1-methyl-6H-pyrrolo[2,3-e][1,2,4]triazolo[4,3-a]pyridin-7-yl)carbonyl]azetidine-3-carbonitrile]: the results for the IC50 at BRD4-BD1 and at BRD4-BD2 were 100 to 1000 nM and ≤ 100 nM, respectively.

`Cc1nnc2ccc3c(cc(CCO)n3Cc3ccccc3)n12` [Example 61, 2-(6-benzyl-1-methyl-6H-pyrrolo[2,3-e][1,2,4]triazolo[4,3-a]pyridin-7-yl)ethanol]: the IC50 on BRD4-BD1 is 1000 to 10000 nM; on BRD4-BD2, 100 to 1000 nM.

For the compound `Cc1nnc2ccc3c(cc(-c4ccn[nH]4)n3Cc3ccccc3)n12` [Example 62, 6-benzyl-1-methyl-7-(1H-pyrazol-5-yl)-6H-pyrrolo[2,3-e][1,2,4]triazolo[4,3-a]pyridine], the IC50 at BRD4-BD1 and on BRD4-BD2 was ≤ 100 nM throughout.

As for `Cc1nnc2ccc3c(cc(-c4cn[nH]c4)n3Cc3ccccc3)n12` [Example 63, 6-benzyl-1-methyl-7-(1H-pyrazol-4-yl)-6H-pyrrolo[2,3-e][1,2,4]triazolo[4,3-a]pyridine], the 50% inhibitory concentration (IC50) on BRD4-BD1 and on BRD4-BD2 was ≤ 100 nM each time.

`Cc1nnc2ccc3c(cc(-c4cnn(CC#N)c4)n3Cc3ccccc3)n12` [Example 64, [4-(6-benzyl-1-methyl-6H-pyrrolo[2,3-e][1,2,4]triazolo[4,3-a]pyridin-7-yl)-1H-pyrazol-1-yl]acetonitrile]: the IC50 at BRD4-BD1 and on BRD4-BD2 was ≤ 100 nM in each case.

`Cc1nnc2ccc3c(cc(-c4ccn(CC#N)n4)n3Cc3ccccc3)n12` [Example 65, [3-(6-benzyl-1-methyl-6H-pyrrolo[2,3-e][1,2,4]triazolo[4,3-a]pyridin-7-yl)-1H-pyrazol-1-yl]acetonitrile]: the IC50 on BRD4-BD1 and at BRD4-BD2 was ≤ 100 nM throughout.

For `Cc1nnc2ccc3c(cc(-c4cscn4)n3Cc3ccccc3)n12` [Example 66, 6-benzyl-1-methyl-7-(1,3-thiazol-4-yl)-6H-pyrrolo[2,3-e][1,2,4]triazolo[4,3-a]pyridine], the concentration for half-maximal inhibition (IC50) at BRD4-BD1 and on BRD4-BD2 was ≤ 100 nM throughout.

Turning to `Cc1nnc2ccc3c(cc(-c4nccs4)n3Cc3ccccc3)n12` [Example 67, 6-benzyl-1-methyl-7-(1,3-thiazol-2-yl)-6H-pyrrolo[2,3-e][1,2,4]triazolo[4,3-a]pyridine], the IC50 on BRD4-BD1 and at BRD4-BD2 was ≤ 100 nM throughout.

For `Cc1nnc2ccc3c(cc(-c4ccccn4)n3Cc3ccccc3)n12` [Example 68, 6-benzyl-1-methyl-7-pyridin-2-yl-6H-pyrrolo[2,3-e][1,2,4]triazolo[4,3-a]pyridine], the IC50 on BRD4-BD1 is 100 to 1000 nM; at BRD4-BD2 it was ≤ 100 nM.

For `Cc1nnc2ccc3c(cc(-c4cncs4)n3Cc3ccccc3)n12` [Example 69, 6-benzyl-1-methyl-7-(1,3-thiazol-5-yl)-6H-pyrrolo[2,3-e][1,2,4]triazolo[4,3-a]pyridine], the IC50 was 100 to 1000 nM on BRD4-BD1 and ≤ 100 nM on BRD4-BD2.

In the case of `Cc1nnc2ccc3c(cc(-c4cn(C)cn4)n3Cc3ccccc3)n12` [Example 70, 6-benzyl-1-methyl-7-(1-methyl-1H-imidazol-4-yl)-6H-pyrrolo[2,3-e][1,2,4]triazolo[4,3-a]pyridine], the IC50 on BRD4-BD1 and on BRD4-BD2 was ≤ 100 nM throughout.

Turning to `Cc1nnc2ccc3c(cc(-c4cncn4C)n3Cc3ccccc3)n12` [Example 71, 6-benzyl-1-methyl-7-(1-methyl-1H-imidazol-5-yl)-6H-pyrrolo[2,3-e][1,2,4]triazolo[4,3-a]pyridine], the half-inhibitory concentration (IC50) at BRD4-BD1 lay in the range of 100 to 1000 nM; on BRD4-BD2 it was 1000 to 10000 nM.

Consider `Cc1nnc2ccc3c(cc(-c4ccsc4)n3Cc3ccccc3)n12` [Example 72, 6-benzyl-1-methyl-7-(3-thienyl)-6H-pyrrolo[2,3-e][1,2,4]triazolo[4,3-a]pyridine], for which the concentration for half-maximal inhibition (IC50) at BRD4-BD1 and at BRD4-BD2 was ≤ 100 nM each time.

As for `Cc1nnc2ccc3c(cc(-c4cccs4)n3Cc3ccccc3)n12` [Example 73, 6-benzyl-1-methyl-7-(2-thienyl)-6H-pyrrolo[2,3-e][1,2,4]triazolo[4,3-a]pyridine], the values for the IC50 at BRD4-BD1 and on BRD4-BD2 were 100 to 1000 nM and ≤ 100 nM, respectively.
